From patent US20010044463A1, “Methods for controlling gram negative bacteria in mammals” (priority 1997, published 2001)

Columns and labels:
[1] = system: H. pylori (urease positive) ATCC Number 51652; assay: Minimum Inhibitory Concentration (MIC) blood agar plate growth inhibition; format: cell-based, Helicobacter pylori; details: Table XVII, Blood agar base + 3% sheep blood
Experimental: (§1) Monensin (Sigma Cat. No. M-5273) was dissolved in 100% absolute ethanol (AAPER Alcohol and Chemical Co.) at a concentration of 20 mg/ml. Subsequent dilutions were made in ethanol immediately prior to use. Nigericin (Sigma Cat. No. N-7143) was dissolved in DMSO at 2 mg/ml. Subsequent dilutions were made in BHI medium (Brain heart infusion broth, Difco #0037-07-0) immediately prior to use.
(§2) Blood agar base (BAB) was prepared containing 1.5% agar and autoclaved. 20 ml samples of autoclaved BAB were poured into 50 mL tubes and placed in a 56° C. water bath.
(§3) 100 μl of a drug (final concentration equivalent to 1:200 of original concentration) and 1.2 ml of sheep blood (Colorado Senun Company # CS-1112) (blood diluted in a 1:1 buffer providing a 3% concentration of blood per 20 ml medium sample) were added to 20 ml sample of media and mixed. The mixed media preparation was poured into a petri dished and allowed to solidify.
(§4) Prior to inoculation of petri plates, bacteria or cultures were examined for morphology under a phase microscope to confirm motility and physical characteristics, e.g., spiral shaped. The organisms were washed off the plate into PBS (Phosphate buffered saline) (80.0 g NaCl, 2.0 g KCl, 2.4 g KH2PO4 11.5 g Na2HPO4 or 24.4 g Na2HPO4/2H2O per 1 liter deionized water, pH 7.2, sterilized by autoclaving) and diluted into BHI at a concentration of 10^8/ml (O.D. of 0.3 units diluted 1:30). Ten microliters of solution containing 10^6 organisms were spread onto a petri plate and grown under microaerophilic conditions for 3 days unless specified. Control organisms were grown under microaerophilic conditions.
(§5) Inhibition of growth was determined by the amount of colonies present within the petri plate. The following factors were used for growth inhibition: ±=0-20 colonies, +=20-50 colonies, ++=50-200 colonies and +++=200+ colonies.

[2] = system: H. pylori ATCC 43504; assay: as above; format: cell-based, Helicobacter pylori
Experimental: Subsequent dilutions were made in ethanol immediately prior to use. […] Subsequent dilutions were made in BHI medium (Brain heart infusion broth, Difco #0037-07-0) immediately prior to use.
as §2
The mixed media preparation was poured into a petri dished and allowed to solidify.
as §4, §5

[3] = system: Staph ATCC 14775; assay: Blood agar plate growth inhibition, control organism; format: cell-based
Experimental: as §1, §2, §3
as §4, with “Control organisms were grown under microaerophilic conditions.” left out
as §5

[4] = system: H. pylori (urease negative) (Wild strain of ATCC 43504); assay: Minimum Inhibitory Concentration (MIC) blood agar plate growth inhibition; format: cell-based, Helicobacter pylori; details: Table III
Experimental: as §1, §2, §3, §4, §5

[5] = final drug concentration 0.1 ng/ml
[6] = final drug concentration 10 ng/ml
[7] = final drug concentration 100 ng/ml
[8] = final drug concentration 1 μg/ml
[9] = final drug concentration 10 μg/ml

Measured: growth (amount of colonies present within the petri plate)

CC[C@@H](C(=O)[C@@H](C)[C@@H](O)[C@H](C)CCc1ccc(C)c(O)c1C(=O)O)[C@H]1O[C@](CC)([C@H]2CC[C@](O)(CC)[C@H](C)O2)C[C@@H]1C [Lasalocid, lasalocid]
No growth: [3]; Table XV, Non microaerophilic conditions, final drug concentration 10 μg/ml
(+++) (+++=200+ colonies): [1]; [5] | [1]; final drug concentration 1 ng/ml | [1]; [6] | [1]; [7] | [1]; [8] | [1]; [9] | [2]; Table VII, urease positive, final drug concentration 10 μg/ml | [3]; Table XV, Non microaerophilic conditions, final drug concentration 10 ng/ml | [3]; Table XV, Non microaerophilic conditions, final drug concentration 100 ng/ml | [3]; Table XV, Non microaerophilic conditions, final drug concentration 1 μg/ml

CO[C@@H]1C[C@@H](C[C@H]2CC[C@H](C)[C@H]([C@@H](C)C(=O)O)O2)O[C@]2(O[C@](C)([C@H]3CC[C@@](C)([C@@H]4O[C@@H]([C@H]5O[C@@](O)(CO)[C@H](C)C[C@@H]5C)C[C@@H]4C)O3)C[C@H]2C)[C@@H]1C [Nigericin, nigericin]
No growth: [4]; [8] | [4]; [9] | [2]; Table I, final drug concentration 1 μg/ml | [2]; Table I, final drug concentration 10 μg/ml | [2]; Table II, urease positive, final drug concentration 1 μg/ml | [2]; Table II, urease positive, final drug concentration 10 μg/ml | [2]; Table IV, urease positive, final drug concentration 1 μg/ml | [2]; Table IV, urease positive, final drug concentration 10 μg/ml | [3]; Table XIV, Non-microaerophilic conditions, final drug concentration 1 μg/ml | [3]; Table XIV, Non-microaerophilic conditions, final drug concentration 10 μg/ml
No growth^1: [2]; Table V, in the presence of 10 mM urea, final drug concentration 10 μg/ml, Nigericin assay done in duplicate
(++)^1 (++=50-200 colonies): [2]; Table V, in the presence of 10 mM urea, final drug concentration 10 ng/ml, Nigericin assay done in duplicate
(++) (++=50-200 colonies): [2]; Table I, final drug concentration 100 ng/ml
(±)^1 (±=0-20 colonies): [2]; Table V, in the presence of 10 mM urea, final drug concentration 1 μg/ml, Nigericin assay done in duplicate
(+++)^1 (+++=200+ colonies): [2]; Table V, in the presence of 10 mM urea, final drug concentration 0.1 ng/ml, Nigericin assay done in duplicate | [2]; Table V, in the presence of 10 mM urea, final drug concentration 1 ng/ml, Nigericin assay done in duplicate | [2]; Table V, in the presence of 10 mM urea, final drug concentration 100 ng/ml, Nigericin assay done in duplicate
(±) (±=0-20 colonies): [2]; Table VI, in the presence of 2.5 mM urea, final drug concentration 1 μg/ml
(+++***) (+++=200+ colonies): [3]; Table XIV, Non-microaerophilic conditions, final drug concentration 100 ng/ml
(+++) (+++=200+ colonies): [4]; [5] | [4]; [6] | [4]; [7] | [2]; Table I, final drug concentration 0.1 ng/ml | [2]; Table I, final drug concentration 1 ng/ml | [2]; Table I, final drug concentration 10 ng/ml | [2]; Table II, urease positive, final drug concentration 1 ng/ml | [2]; Table II, urease positive, final drug concentration 10 ng/ml | [2]; Table II, urease positive, final drug concentration 0.1 nglml | [2]; Table IV, urease positive, final drug concentration 0.1 ng/ml | [2]; Table IV, urease positive, final drug concentration 1 ng/ml | [2]; Table IV, urease positive, final drug concentration 10 ng/ml | [2]; Table IV, urease positive, final drug concentration 100 ng/ml | [2]; Table VI, in the presence of 2.5 mM urea, final drug concentration 1 ng/ml | [2]; Table VI, in the presence of 2.5 mM urea, final drug concentration 10 ng/ml | [3]; Table XIV, Non-microaerophilic conditions, final drug concentration 0.1 ng/ml | [3]; Table XIV, Non-microaerophilic conditions, final drug concentration 1 ng/ml | [3]; Table XIV, Non-microaerophilic conditions, final drug concentration 10 ng/ml
